The values below are quoted from earlier work in patent US11111208B2, “Process for the preparation of safinamide mesylate intermediate” (RK Pharma Solutions LLC, priority 2019, dated 2021).

Structures can show the parent of a compound that is named as a salt. Where two headings read alike, the source gives them in different places.

Assay in data set [1]: not given
This is another data set of the same source.

For `C[C@H](NCc1ccc(OCc2cccc(F)c2)cc1)C(N)=O` [Safinamide, (S)-2-[4-(3-fluorobenzyloxy)-benzylamino]propanamide], the “neuroprotective and neurorescuing effects” value is “neuroprotective and neurorescuing effects” in the data set on MPTP-treated mice; “neuroprotective and neurorescuing effects” in the data set on gerbil ischemia model; “neuroprotective and neurorescuing effects” in the data set with rat kainic acid model.
As for `C[C@H](NCc1ccc(OCc2cccc(F)c2)cc1)C(N)=O` [Safinamide mesylate, (S)-2-[[4-[(3-fluorophenyl)methoxy]phenyl]methyl]aminopropanamide methanesulfonate (1:1)], the solubility (in general, the dissolved amount per volume that the medium holds) (in dimethyl sulfoxide) was “freely soluble”; the solubility result (in ethanol) is on record as “sparingly soluble”; the solubility entry (in ethyl acetate) is “practically insoluble”; the solubility entry (in methanol) is listed as “freely soluble”; the solubility entry (in water) is on record as “freely soluble”; the solubility result in data set [1] (aqueous buffer pH 1.2) was “highly soluble”. Also, the solubility entry in data set [1] (aqueous buffer pH 4.5) is “highly soluble”; in data set [1] (aqueous buffer pH 6.8) it was < 400 µg/mL; in data set [1] (aqueous buffer pH 7.5) it was < 400 µg/mL.
